Source: EP2924040A1, “2-Amino-1-(o-tolyl)pyrrolo[3,2-b]quinoxaline-3-carboxamide derivates” (Universität Zürich, priority 2014, dated 2015)

System: A498
Assay: Cell culture and GI50 determination (resazurin)
Format: cell-based
Details: Homo sapiens, A498, 48h incubation
Method: MDA-MB-231 (breast cancer) and KM12 (colon cancer) cells obtained from the UZH Cancer Institute, HOP-92 (lung cancer) cells purchased from the National Cancer Institute (NCl) and A498 (kidney cancer) cells obtained from Prof. Krek (Institute of Cell Biology, ETH Zurich) were cultured in Dulbecco's modified Eagle's medium (DMEM) supplemented with 10% (v/v) fetal bovine serum. K562 leukemia cells obtained from Dr. Silvio Hemmi (Institute of Molecular Life Sciences, UZH) were cultured using RPMI medium supplemented with 5% (v/v) fetal bovine serum. All the media was additionally supplemented with 100 units/mL of penicillin, 100µg/mL of streptomycin, 4.5 g/L glucose, 0.11g/L sodium pyrubate and 2mM glutamine and the cells were grown at 37 °C in 5% CO2 atmosphere with 80% relative humidity.
MDA-MB-231, HT-29, KM12, HOP-92 and A498 cells were plated at 10,000 cells per well (100 µL per well) in 96-well culture dishes and allowed to incubate for 24 h. The old media was removed, the cells were washed with PBS (phosphate-buffered saline) and fresh media was added. A 5 mmol/L solution of inhibitor (in 100% DMSO) was serially diluted in the culture media (12 different concentrations were used) and allowed to incubate for 72 h (MDA-MB-231) or 48h (A498). Control cells were treated with the same DMSO concentrations. After the incubation period the media was once more removed and the cells were washed with PBS to then be incubated with fresh media containing 86 nmol/L resazurin. After 3 hours, the fluorescence was quantified using a fluorescence microplate reader (Biotek, FLx800™) at the respective excitation and emission wavelength of 560 and 590 nm. Resazurin becomes fluorescent under mitochondrial reduction and its emission directly correlates with the metabolic stability of the cells. The measured fluorescence values were corrected from the control samples containing DMSO and GI50 values were determined by plotting the fraction of metabolically active cells against the log of the drug concentration. All measurements were performed at least in triplicate.

COc1ccc(C)c(-n2c(N)c(C(N)=O)c3nc4ccccc4nc32)c1 [Compound 8, 2-Amino-1-(5-methoxy-2-methylphenyl)-1H-pyrrolo[2,3-b]quinoxaline-3-carboxamide, reference compound]
GI50: 59.3 µM
